# Measurements: patent publication US9493486B2, “Diazaspirocycloalkane and azaspirocycloalkane” (Hoffmann-La Roche Inc., priority 2012, dated 2016)
# Biological target: ATX (human His-tagged) (Homo sapiens (Human), UniProt Q13822)
# Assay: Human ATX enzyme inhibition assay (fluorescence quenching, MR121 substrate)
# Format: biochemical
# Details: 30 nM ATX, 1 μM MR121 substrate, 30° C.
# Source text: Human ATX Enzyme Inhibition Assay
# Assay working solutions were made as follows:
row,Compound,IC50 [nM]
1,"O=C(NC1CC2(C1)CN(C(=O)OCc1cccc(C(F)(F)F)c1)C2)c1ccc2[nH]nnc2c1 [Example 12.19, 6-[(1H-benzotriazole-5-carbonyl)-amino]-2-aza-spiro[3.3]heptane-2-carboxylic acid 3-trifluoromethyl-benzyl ester]",2150
2,"CC(C)c1cc(C#N)ccc1OCC(=O)N1CCC2(CC1)CN(C(=O)C1CCc3[nH]nnc3C1)C2 (centres unmarked) [Example 1.25, 3-isopropyl-4-(2-oxo-2-(2-(4,5,6,7-tetrahydro-1H-benzo[d][1,2,3]triazole-5-carbonyl)-2,7-diazaspiro[3.5]nonan-7-yl)ethoxy)benzonitrile]",74
3,"O=C(OCc1cnc(Cl)c(Cl)c1)N1CCC2(CC1)CN(C(=O)c1ccc3[nH]nnc3c1)C2 [Example 12.03, (5,6-dichloropyridin-3-yl)methyl 2-(1H-benzo[d][1,2,3]triazole-5-carbonyl)-2,7-diazaspiro[3.5]nonane-7-carboxylate]",622
4,"O=C(c1ccc2[nH]nnc2c1)N1CCC2(CCN(C(=O)c3cc4cc(Cl)ccc4o3)C2)C1 (centres unmarked) [Example 6.7, (7-(1H-benzo[d][1,2,3]triazole-5-carbonyl)-2,7-diazaspiro[4.4]nonan-2-yl)(5-chlorobenzofuran-2-yl)methanone]",3930
5,"O=C(OCc1ccc(C(F)(F)F)cc1)N1CCC2(CC1)CN(C(=O)c1ccc3[nH]c(=O)oc3c1)C2 [Example 12.22, 4-(trifluoromethyl)benzyl 2-(2-oxo-2,3-dihydrobenzo[d]oxazole-6-carbonyl)-2,7-diazaspiro[3.5]nonane-7-carboxylate]",439
6,"O=C(NCc1c[nH]nn1)N1CC2(CCN(C(=O)OCc3ccc(OC(F)(F)F)cc3)CC2)C1 [Example 14, [4-(Trifluoromethoxy)phenyl]methyl 2-((1H-triazol-4-ylmethyl)carbamoyl)-2,7-diazaspiro[3.5]nonane-7-carboxylate]",23
7,"O=C(OCc1ccc(Cl)c(Cl)c1)N1CCC2(CC1)CN(C(=O)c1ccc3[nH]nnc3c1)C2 [Example 12.02, 3,4-dichlorobenzyl 2-(1H-benzo[d][1,2,3]triazole-5-carbonyl)-2,7-diazaspiro[3.5]nonane-7-carboxylate]",44
8,"O=C(OCc1cc(Cl)cc(Cl)c1)N1CCC2(CC1)CN(S(=O)(=O)c1ccc3[nH]c(=O)oc3c1)C2 [Example 3, 3,5-Dichlorobenzyl 2-(2-oxo-2,3-dihydro-benzo[d]oxazol-6-ylsulfonyl)-2,7-diazaspiro[3.5]nonane-7-carboxylate]",6
9,"O=C(OCc1cc(Cl)cc(Cl)c1)N1CC2(CCN(C(=O)c3ccc4[nH]nnc4c3)CC2)C1 [Example 1.15, 3,5-dichlorobenzyl 7-(1H-benzo[d][1,2,3]triazole-5-carbonyl)-2,7-diazaspiro[3.5]nonane-2-carboxylate]",64.5
10,"O=C(OCc1ccc(Cl)cc1Cl)N1CCC2(CC1)CN(C(=O)c1ccc3[nH]nnc3c1)C2 [Example 12.04, 2,4-dichlorobenzyl 2-(1H-benzo[d][1,2,3]triazole-5-carbonyl)-2,7-diazaspiro[3.5]nonane-7-carboxylate]",17
11,"O=C(OCc1ccc(OCC(F)(F)F)cc1F)N1CCC2(CC1)CN(C(=O)C1CCc3nn[nH]c3C1)C2 (centres unmarked) [Example 12.38, 2-fluoro-4-(2,2,2-trifluoroethoxy)benzyl 2-(4,5,6,7-tetrahydro-1H-benzo[d][1,2,3]triazole-6-carbonyl)-2,7-diazaspiro[3.5]nonane-7-carboxylate]",2.5
